PMC4618646 (Pharmacology Research & Perspectives, 2015)
pIC50, pKi: −log10 of the molar value. Converted amounts (≈) assume the structure as drawn. Where two headings read alike, the source gives them in different places.

Legend:
[1] = phase II clinical trials for RA; ref Silverman et al. [2008]; cited from earlier work
[2] = ref Mikus et al. [2013]; cited from earlier work
KDR (VEGFR2) = assay: KDR inhibition measured in HUVEC cells; type: cell-based, human; conditions: from KDR IC50 data of ref McTigue et al. [2012]
[3] = system: Purified human recombinant kinases; type: biochemical; conditions: median estimate of curve top showing <50% inhibition
Cathepsin S = Cathepsin S (Homo sapiens, UniProt P25774); assay: Cathepsin S; type: biochemical
Chain of Cathepsin S (P25774 115-331): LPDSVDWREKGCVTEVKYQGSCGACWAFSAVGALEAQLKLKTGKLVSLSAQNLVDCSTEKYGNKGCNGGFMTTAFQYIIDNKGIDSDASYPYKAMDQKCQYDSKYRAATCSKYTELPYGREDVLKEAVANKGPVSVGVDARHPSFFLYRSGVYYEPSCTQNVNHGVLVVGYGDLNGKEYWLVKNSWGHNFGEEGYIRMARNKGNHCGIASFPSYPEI

[4] = system: 314 diverse molecular targets; assay: Eurofins Panlabs broad in vitro panel, 10 μmol/L single concentration screen; conditions: at nine of 314 targets
Adenosine A3 receptor [5] = target: T1, Adenosine A3 receptor (Homo sapiens, UniProt P0DMS8); type: biochemical
T1 sequence (P0DMS8 1-318): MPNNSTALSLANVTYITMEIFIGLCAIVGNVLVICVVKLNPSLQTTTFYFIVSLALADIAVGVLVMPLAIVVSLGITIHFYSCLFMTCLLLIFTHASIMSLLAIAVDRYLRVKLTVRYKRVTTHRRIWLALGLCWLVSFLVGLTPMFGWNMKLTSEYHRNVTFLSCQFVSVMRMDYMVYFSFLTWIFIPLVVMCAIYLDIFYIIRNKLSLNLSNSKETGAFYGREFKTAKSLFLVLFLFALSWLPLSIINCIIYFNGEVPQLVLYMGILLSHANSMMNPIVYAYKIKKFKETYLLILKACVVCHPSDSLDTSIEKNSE

Adenosine A3 receptor [6] = target: T1, Adenosine A3 receptor; assay: Adenosine A3 receptor; conditions: Radioligand binding Ki
Lipoxygenase 5-LO = target: T2, Lipoxygenase 5-LO (Homo sapiens, UniProt P09917); assay: Lipoxygenase 5-LO; type: biochemical
T2 sequence (P09917 1-674): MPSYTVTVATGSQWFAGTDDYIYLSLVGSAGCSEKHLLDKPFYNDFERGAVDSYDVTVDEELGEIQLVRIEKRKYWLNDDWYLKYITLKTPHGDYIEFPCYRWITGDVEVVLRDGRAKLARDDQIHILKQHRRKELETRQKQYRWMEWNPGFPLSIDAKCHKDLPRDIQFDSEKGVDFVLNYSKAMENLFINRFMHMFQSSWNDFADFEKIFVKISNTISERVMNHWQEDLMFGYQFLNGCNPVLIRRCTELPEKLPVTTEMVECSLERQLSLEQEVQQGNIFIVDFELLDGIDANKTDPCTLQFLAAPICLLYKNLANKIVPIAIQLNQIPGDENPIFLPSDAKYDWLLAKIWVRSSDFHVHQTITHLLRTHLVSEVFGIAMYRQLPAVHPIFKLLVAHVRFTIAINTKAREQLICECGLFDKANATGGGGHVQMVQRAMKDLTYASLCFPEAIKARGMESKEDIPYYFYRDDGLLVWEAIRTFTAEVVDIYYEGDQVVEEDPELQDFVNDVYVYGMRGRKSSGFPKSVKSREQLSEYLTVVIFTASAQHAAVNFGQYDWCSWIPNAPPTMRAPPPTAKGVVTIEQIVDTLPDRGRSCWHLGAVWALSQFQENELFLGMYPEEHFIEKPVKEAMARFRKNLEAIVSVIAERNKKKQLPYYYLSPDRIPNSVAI

[7] = type: physicochemical
human kinases = type: binding; conditions: 10 μmol/L single concentration screen; for 197 of 387 kinases
adenosine transporter = type: cell-based, human
Transporter, monoamine = assay: Transporter, monoamine; type: binding; conditions: Vesicular monoamine transporter (rabbit)
Phosphodiesterase PDE5 = Phosphodiesterase PDE5 (Homo sapiens, UniProt O76074); assay: Phosphodiesterase PDE5; type: biochemical
[8] = target: T3, UDP glucuronosyltransferase, UGT1A1 (Homo sapiens, UniProt P22309); assay: UDP glucuronosyltransferase, UGT1A1; type: biochemical
T3 sequence (P22309 26-533): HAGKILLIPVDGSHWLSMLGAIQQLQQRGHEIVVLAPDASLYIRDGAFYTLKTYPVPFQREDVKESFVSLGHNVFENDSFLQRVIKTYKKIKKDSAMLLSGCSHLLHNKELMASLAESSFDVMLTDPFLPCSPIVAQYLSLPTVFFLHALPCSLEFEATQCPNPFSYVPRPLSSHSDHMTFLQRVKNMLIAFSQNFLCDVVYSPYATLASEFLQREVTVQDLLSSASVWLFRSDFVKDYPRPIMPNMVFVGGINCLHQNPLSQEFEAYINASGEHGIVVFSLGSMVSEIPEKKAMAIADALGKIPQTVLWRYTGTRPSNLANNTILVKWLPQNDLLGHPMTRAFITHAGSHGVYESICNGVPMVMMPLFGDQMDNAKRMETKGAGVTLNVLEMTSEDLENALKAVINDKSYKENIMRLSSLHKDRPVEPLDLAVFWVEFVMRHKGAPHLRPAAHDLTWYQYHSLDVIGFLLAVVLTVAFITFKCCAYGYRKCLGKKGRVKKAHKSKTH

[9] = target: T4, Fatty acid amide hydrolase (FAAH) (Rattus norvegicus, UniProt P97612); assay: Fatty acid amide hydrolase; type: biochemical
T4 sequence (P97612 1-579): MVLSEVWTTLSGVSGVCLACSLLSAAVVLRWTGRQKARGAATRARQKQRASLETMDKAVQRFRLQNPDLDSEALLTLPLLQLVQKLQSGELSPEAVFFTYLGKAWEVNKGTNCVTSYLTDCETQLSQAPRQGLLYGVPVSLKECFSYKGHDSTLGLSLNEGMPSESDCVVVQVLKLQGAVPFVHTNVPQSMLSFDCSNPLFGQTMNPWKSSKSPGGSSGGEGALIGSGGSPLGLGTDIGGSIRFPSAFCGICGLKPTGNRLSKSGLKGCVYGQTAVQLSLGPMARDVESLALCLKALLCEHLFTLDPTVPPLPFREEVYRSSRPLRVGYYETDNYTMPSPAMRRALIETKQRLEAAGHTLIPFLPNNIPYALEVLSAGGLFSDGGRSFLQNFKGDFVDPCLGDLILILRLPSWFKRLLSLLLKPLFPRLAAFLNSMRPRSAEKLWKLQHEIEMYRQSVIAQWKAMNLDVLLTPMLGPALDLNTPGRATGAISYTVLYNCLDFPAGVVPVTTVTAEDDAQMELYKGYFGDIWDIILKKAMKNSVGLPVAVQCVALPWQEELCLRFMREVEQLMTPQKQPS

Cathepsin L = Cathepsin L (Homo sapiens, UniProt P07711); assay: Cathepsin L; type: biochemical
Chain of Cathepsin L (P07711 114-333): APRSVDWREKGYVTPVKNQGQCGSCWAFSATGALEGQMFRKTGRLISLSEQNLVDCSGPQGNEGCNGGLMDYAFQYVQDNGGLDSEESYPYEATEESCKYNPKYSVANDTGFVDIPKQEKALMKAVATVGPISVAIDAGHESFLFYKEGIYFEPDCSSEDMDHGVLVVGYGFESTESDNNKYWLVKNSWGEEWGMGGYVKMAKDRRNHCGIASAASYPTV

In the case of `CNC(=O)[C@H]1O[C@@H](n2cnc3c(NCc4cccc(I)c4)ncnc32)[C@H](O)[C@@H]1O` [CF101], the “adverse effects on blood pressure” value [1] is given as “no adverse effects on blood pressure”.
For `COc1ccc(C(=O)Nc2nc3ccccc3c(NCc3ccccc3)c2C#N)cc1` [SSR161421], the “effects in animal models of asthma” value [2] is listed as “beneficial effects”.
For `COc1cc2c(Oc3ccc4[nH]c(C)cc4c3F)ncnc2cc1OCCCN1CCCC1` [cediranib], the “fold more potent at KDR than sunitinib” value (KDR (VEGFR2)) was ~31 fold.
In the case of `COc1cc(Nc2ncc(F)c(Nc3ccc4c(n3)NC(=O)C(C)(C)O4)n2)cc(OC)c1OC` [R406], the “activity in the remaining 19 of 139 kinase activity assays” value [3] was “inactive”, the Mode of action (Cathepsin S; Cathepsin S (human)) was “Inhibitor” and the pIC50 (Cathepsin S; Radioligand binding or enzyme activity IC50, Cathepsin S (human)) was 4.92. The inhibition [4] was > 50%, the Mode of action (Adenosine A3 receptor [5]; Adenosine A3 receptor (human)) was “Antagonist” and the “effect of R406 on its own on GTPγS binding” value (Adenosine A3 receptor [5]; concentrations up to 10 μmol/L, absence of agonist) was “no effect”. For the same compound, the pKi (Adenosine A3 receptor [6]) was 7.77, the Mode of action (Lipoxygenase 5-LO; 5-Lipoxygenase (human)) was “Inhibitor” and the pIC50 (Lipoxygenase 5-LO; Radioligand binding or enzyme activity IC50, 5-Lipoxygenase (human)) was 5.26. The solubility ([7]; solubility in DMSO, 100% DMSO) was ~140 mM (≈ 65.9 mg/mL), the solubility ([7]; solubility in phosphate-buffered saline, physiological pH) was 0.0002 mM (≈ 9.41e-05 mg/mL) and the “inhibition of the qPCR signal” value (human kinases) was ≥ 80%. The Mode of action (adenosine transporter; Adenosine transporter (human)) was “Inhibitor”, the pIC50 (adenosine transporter; read-out: IC50, inhibition of adenosine uptake, U937 cells, [^3H]adenosine) was 7.00 and the pKi (Transporter, monoamine; read-out: Radioligand binding Ki) was 5.79. The pIC50 (Transporter, monoamine; read-out: Radioligand binding or enzyme activity IC50) was 5.71, the Mode of action (Phosphodiesterase PDE5; Phosphodiesterase PDE5 (human)) was “Inhibitor” and the pIC50 (Phosphodiesterase PDE5; Radioligand binding or enzyme activity IC50, Phosphodiesterase PDE5 (human)) was 6.51. For the same compound, the pIC50 ([8]; Radioligand binding or enzyme activity IC50, UDP glucuronosyltransferase UGT1A1 (human)) was 6.84, the Mode of action ([8]; UDP glucuronosyltransferase UGT1A1 (human)) was “Inhibitor” and the Mode of action ([9]; Fatty acid amide hydrolase (rat)) was “Inhibitor”. For the same compound, the pIC50 ([9]; Radioligand binding or enzyme activity IC50, Fatty acid amide hydrolase (rat)) was 5.82, the Mode of action (Cathepsin L; Cathepsin L (human)) was “Inhibitor” and the pIC50 (Cathepsin L; Radioligand binding or enzyme activity IC50, Cathepsin L (human)) was 5.23.
